Data taken from ChEMBL document CHEMBL5365550, “Targeting the Inhibition of B-Cell Lymphoma 2 Protein for the Treatment of Cancer” (ACS Med Chem Lett, 2023).

Legend:
[1] = tested on: MOLT-4; test: Cytotoxicity against human MOLT-4 cells assessed as reduction in cell viability by CellTiter-Glo assay; format: functional, cell-based
[2] = tested on: RS4-11; test: Cytotoxicity against human RS4-11 cells assessed as reduction in cell viability by CellTiter-Glo assay; format: functional, cell-based
[3] = target: Apoptosis regulator Bcl-2 (Homo sapiens, UniProt P10415); test: Inhibition of human Bcl-2 expressed in Escherichia coli BL21(DE3) T1R cells preincubated under shaking condition for 1 min and measured after 3 hrs by TR-FRET assay
Sequence of Apoptosis regulator Bcl-2 (P10415 whole entry): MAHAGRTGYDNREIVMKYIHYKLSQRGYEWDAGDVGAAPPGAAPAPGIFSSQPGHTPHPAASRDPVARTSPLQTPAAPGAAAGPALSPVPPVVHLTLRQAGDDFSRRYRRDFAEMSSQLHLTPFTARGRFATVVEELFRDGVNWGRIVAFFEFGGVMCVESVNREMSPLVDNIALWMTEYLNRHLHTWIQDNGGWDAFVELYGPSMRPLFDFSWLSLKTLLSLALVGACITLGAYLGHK

[4] = target: Bcl-2-like protein 1 (Homo sapiens, UniProt Q07817); test: Inhibition of human Bcl-xL expressed in Escherichia coli BL21(DE3) T1R cells preincubated under shaking condition for 1 min and measured after 3 hrs by TR-FRET assay
Sequence of Bcl-2-like protein 1 (Q07817 whole entry): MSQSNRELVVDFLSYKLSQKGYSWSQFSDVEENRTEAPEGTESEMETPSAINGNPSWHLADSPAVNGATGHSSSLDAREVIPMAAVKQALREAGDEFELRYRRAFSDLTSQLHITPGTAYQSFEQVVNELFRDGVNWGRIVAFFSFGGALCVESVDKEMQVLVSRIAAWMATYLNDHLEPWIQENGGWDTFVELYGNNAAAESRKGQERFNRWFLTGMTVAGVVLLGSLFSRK

SMILES | EC50 [1] | EC50 [2] | Ki [3] | Ki [4]
CO[C@H]1CC[C@H](CNc2ccc(S(=O)(=O)NC(=O)c3ccc(N4CCN5CC6=C(c7ccc(Cl)cc7)CC(C)(C)C[C@H]6OCCCOC[C@@H]5C4)cc3N3CCCOc4nc5[nH]ccc5cc43)cc2[N+](=O)[O-])OC1 | 1700 nM |  |  | 
COCC1(F)CC(CNc2ccc(S(=O)(=O)NC(=O)c3ccc(N4CCN5CC6=C(c7ccc(Cl)cc7)CC(C)(C)C[C@H]6OCCCOC[C@@H]5C4)cc3N3CCCOc4nc5[nH]ccc5cc43)cc2[N+](=O)[O-])C1 (stereo partly drawn) | > 10000 nM | 10.9 nM | 0.28 nM | 25.8 nM
CC1(C)CC(c2ccc(Cl)cc2)=C2CN3CCN(c4ccc(C(=O)NS(=O)(=O)c5cnc(OCC6(F)CCOCC6)c(Cl)c5)c(N5CCCOc6nc7[nH]ccc7cc65)c4)C[C@H]3COCCCO[C@@H]2C1 | > 10000 nM | 5.46 nM |  | > 661 nM
CC1(C)CC(c2ccc(Cl)cc2)=C2CN3CCN(c4ccc(C(=O)NS(=O)(=O)c5ccc(NC[C@H]6CC[C@@](C)(O)CC6)c([N+](=O)[O-])c5)c(N5CCCOc6nc7[nH]ccc7cc65)c4)C[C@H]3COCCCO[C@@H]2C1 | 117 nM | 1.47 nM | 0.061 nM | 11.1 nM
CC1(C)CC(c2ccc(Cl)cc2)=C2CN3CCN(c4ccc(C(=O)NS(=O)(=O)c5ccc(NC[C@H]6COCCO6)c([N+](=O)[O-])c5)c(N5CCCOc6nc7[nH]ccc7cc65)c4)C[C@H]3COCCCO[C@@H]2C1 | 1410 nM | 1.36 nM | 0.034 nM | 5.76 nM
CC1(C)CC(c2ccc(Cl)cc2)=C2CN3CCN(c4ccc(C(=O)NS(=O)(=O)c5ccc(NCC6(O)CCOCC6)c([N+](=O)[O-])c5)c(N5CCCOc6nc7[nH]ccc7cc65)c4)C[C@H]3COCCCO[C@@H]2C1 | 426 nM | 1.43 nM | 0.223 nM | 8.31 nM
COC1(CNc2ccc(S(=O)(=O)NC(=O)c3ccc(N4CCN5CC6=C(c7ccc(Cl)cc7)CC(C)(C)C[C@H]6OCCCOC[C@@H]5C4)cc3N3CCCOc4nc5[nH]ccc5cc43)cc2[N+](=O)[O-])CCOCC1 | > 10000 nM | 4.38 nM | 2.09 nM | 40.3 nM
CC1(C)CC(c2ccc(Cl)cc2)=C2CN3CCN(c4ccc(C(=O)NS(=O)(=O)c5ccc(NC[C@H]6CC[C@](C)(O)CC6)c(Cl)c5)c(N5CCCOc6nc7[nH]ccc7cc65)c4)C[C@H]3COCCCO[C@@H]2C1 | > 10000 nM | 17.7 nM | 0.085 nM | 29.7 nM
CC1(C)CC(c2ccc(Cl)cc2)=C2CN3CCN(c4ccc(C(=O)NS(=O)(=O)c5ccc(NC[C@H]6CC[C@H](O)CO6)c([N+](=O)[O-])c5)c(N5CCCOc6nc7[nH]ccc7cc65)c4)C[C@H]3COCCCO[C@@H]2C1 | 823 nM | 0.966 nM |  | 
CC1(C)CC(c2ccc(Cl)cc2)=C2CN3CCN(c4ccc(C(=O)NS(=O)(=O)c5ccc(NC[C@H]6CC[C@](C)(O)CO6)c([N+](=O)[O-])c5)c(N5CCCOc6nc7[nH]ccc7cc65)c4)C[C@H]3COCCCO[C@@H]2C1 | 1220 nM | 0.651 nM | 0.049 nM | 9.3 nM
CO[C@H]1C[C@H](Nc2ccc(S(=O)(=O)NC(=O)c3ccc(N4CCN5CC6=C(c7ccc(Cl)cc7)CC(C)(C)C[C@H]6OCCCOC[C@@H]5C4)cc3N3CCCOc4nc5[nH]ccc5cc43)cc2[N+](=O)[O-])C1 | > 10000 nM | 4.1 nM | 2.58 nM | 39 nM
